Data taken from BindingDB's records for doi:10.7270/Q2ZC817P (The Scripps Research Institute Molecular Screening Center, 2007).

Each compound was assayed against Sphingosine 1-phosphate receptor 1 (Homo sapiens, UniProt P21453) (assay: S1P1 agonism potentiation – cell-based, potentiator mode, 60K MLSMR set, dose response (AID 466)). Conditions: not given.
Chain of Sphingosine 1-phosphate receptor 1 (P21453 whole entry): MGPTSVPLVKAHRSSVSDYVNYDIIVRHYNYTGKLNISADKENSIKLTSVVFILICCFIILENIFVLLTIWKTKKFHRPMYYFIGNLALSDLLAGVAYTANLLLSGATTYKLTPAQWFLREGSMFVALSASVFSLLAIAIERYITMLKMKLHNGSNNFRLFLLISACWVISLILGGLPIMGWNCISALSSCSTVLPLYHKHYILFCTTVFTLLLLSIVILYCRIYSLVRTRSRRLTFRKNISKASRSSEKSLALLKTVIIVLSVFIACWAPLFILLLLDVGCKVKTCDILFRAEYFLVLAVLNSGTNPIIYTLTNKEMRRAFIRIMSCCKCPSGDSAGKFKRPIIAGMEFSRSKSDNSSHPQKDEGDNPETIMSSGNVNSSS

Row | Structure (SMILES) | EC50 [µM]
1 | O=C(CSc1nnc(-c2cc3ccccc3cc2O)n1Cc1ccco1)c1ccc(F)cc1 [(3Z)-3-[3-[2-(4-fluorophenyl)-2-oxidanylidene-ethyl]sulfanyl-4-(furan-2-ylmethyl)-1H-1,2,4-triazol-5-ylidene]naphthalen-2-one] | 23.1
2 | Cc1cc(C(=O)N2CCN(C(c3ccccc3)c3ccccc3)CC2)on1 [(4-benzhydrylpiperazin-1-yl)-(3-methyl-1,2-oxazol-5-yl)methanone] | 5.65
3 | CC(C)c1cc(C(=O)N2CCN(C(c3ccccc3)c3ccccc3)CC2)no1 [(4-benzhydrylpiperazin-1-yl)-(5-propan-2-yl-1,2-oxazol-3-yl)methanone] | 8.42
4 | CCCc1cc(C(=O)N2CCN(C(c3ccccc3)c3ccccc3)CC2)no1 [(4-benzhydrylpiperazin-1-yl)-(5-propyl-1,2-oxazol-3-yl)methanone] | 5.97
5 | O=C(c1cc(-c2ccco2)on1)N1CCN(C(c2ccccc2)c2ccccc2)CC1 [(4-benzhydrylpiperazin-1-yl)-[5-(furan-2-yl)-1,2-oxazol-3-yl]methanone] | 5.82
6 | COc1cccc2sc(Nc3nc(-c4ccccn4)cs3)nc12 [(4-methoxy-1,3-benzothiazol-2-yl)-[4-(2-pyridyl)thiazol-2-yl]amine] | 2.64
7 | O=C(C1CCCN1S(=O)(=O)c1cccc2cccnc12)N1CCN(c2ccccc2)CC1 (configuration not stated) [(4-phenyl-1-piperazinyl)-[1-(8-quinolinylsulfonyl)-2-pyrrolidinyl]methanone] | > 95
8 | CCCc1ccc(Oc2c[nH]nc2-c2ccc(O)cc2O)cc1 [(4E)-3-hydroxy-4-[4-(4-propylphenoxy)-1,2-dihydropyrazol-3-ylidene]-1-cyclohexa-2,5-dienone] | 18.2
9 | COc1ccc(C(=O)C2C(=O)C(=O)N(CC3CCCO3)C2c2cccc(OC)c2)cc1 (configuration not stated) [(4Z)-4-[hydroxy-(4-methoxyphenyl)methylene]-5-(3-methoxyphenyl)-1-(tetrahydrofurfuryl)pyrrolidine-2,3-quinone] | > 95
10 | COc1ccc(CCNc2c(C)c(C)nc3ncnn23)cc1 [(5,6-Dimethyl-[1,2,4]triazolo[1,5-a]pyrimidin-7-yl)-[2-(4-methoxy-phenyl)-ethyl]-amine] | 3.72
11 | Cc1nn(C(=O)c2cccs2)c(N)c1-c1ccccc1 [(5-amino-3-methyl-4-phenyl-1-pyrazolyl)-thiophen-2-ylmethanone] | 4.9
12 | CCC(NCc1ccc2c(c1)OCO2)=C1C(=O)NC(=O)N(C2CCCCC2)C1=O [(5E)-5-[1-(1,3-benzodioxol-5-ylmethylamino)propylidene]-1-cyclohexyl-1,3-diazinane-2,4,6-trione] | 8.66
13 | CCc1c(C)nc2ncnn2c1NCCc1ccc(OC)cc1 [(6-Ethyl-5-methyl-[1,2,4]triazolo[1,5-a]pyrimidin-7-yl)-[2-(4-methoxy-phenyl)-ethyl]-amine] | 9.1
14 | CCc1ccc2oc(-c3cc(N)cc(C)c3O)nc2c1 [(6E)-4-amino-6-(5-ethyl-3H-1,3-benzoxazol-2-ylidene)-2-methyl-1-cyclohexa-2,4-dienone] | 11.6
15 | C=C(C)COc1ccc(-c2nc(N)nc(C)c2Oc2ccccc2OC)c(O)c1 [(6E)-6-[2-amino-5-(2-methoxyphenoxy)-6-methyl-1H-pyrimidin-4-ylidene]-3-(2-methylallyloxy)cyclohexa-2,4-dien-1-one] | 2.79
16 | COc1ccc(-c2n[nH]cc2-c2ccc3c(c2)OCCO3)c(O)c1 [(6E)-6-[4-(2,3-dihydro-1,4-benzodioxin-6-yl)-1,2-dihydropyrazol-3-ylidene]-3-methoxycyclohexa-2,4-dien-1-one] | 1.49
17 | CCOC(=O)CN(C(=O)CSc1nnc(-c2cccc(OC)c2)o1)c1ccc(F)cc1 [((4-Fluoro-phenyl)-{2-[5-(3-methoxy-phenyl)-[1,3,4]oxadiazol-2-ylsulfanyl]-acetyl}-amino)-acetic acid ethyl ester] | 2.11
18 | Cc1noc(/C=C/N(C)C)c1S(=O)(=O)N1CCc2ccccc21 [(E)-2-[4-(2,3-dihydroindol-1-ylsulfonyl)-3-methyl-1,2-oxazol-5-yl]-N,N-dimethyl-ethenamine] | > 95
19 | CC(=N)C(C#N)C(=O)CSc1nc2cc(Cl)ccc2s1 (configuration not stated) [(E)-3-amino-2-[2-[(5-chloro-1,3-benzothiazol-2-yl)sulfanyl]acetyl]but-2-enenitrile] | 11.1
20 | CC(=N)C(C#N)C(=O)CSc1nnc(SCc2ccc(Cl)cc2)s1 (configuration not stated) [(E)-3-amino-2-[2-[[5-[(4-chlorobenzyl)thio]-1,3,4-thiadiazol-2-yl]thio]acetyl]but-2-enenitrile] | 9.63
21 | Cc1noc(/C=C/N(C)C)c1S(=O)(=O)N1CCN(c2ccccc2)CC1 [(E)-N,N-dimethyl-2-[3-methyl-4-(4-phenylpiperazin-1-yl)sulfonyl-1,2-oxazol-5-yl]ethenamine] | > 95

Row | Structure (SMILES) | EC50 [µM]
22 | O=S(=O)(C/C(=C/CO)S(=O)(=O)c1ccccc1)c1ccccc1 [(Z)-3,4-bis(benzenesulfonyl)but-2-en-1-ol] | 8.68
23 | CC(=O)Nc1cc(OC(C)=O)c2nonc2c1OC(C)=O [Acetic acid 7-acetoxy-5-acetylamino-benzo[1,2,5]oxadiazol-4-yl ester] | 5.71
24 | CCN(C(=O)C1CCCCC1)c1nnc(-c2cccnc2)s1 [Cyclohexanecarboxylic acid ethyl-(5-pyridin-3-yl-[1,3,4]thiadiazol-2-yl)-amide] | 1.75
25 | COCCN(C(=O)c1ccccc1)c1nnc(-c2cccnc2)s1 [MLS000032523] | 4.83
26 | O=C(CCC(=O)N(Cc1ccco1)C(C(=O)NC1CCCC1)c1ccncc1)Nc1cccnc1 (configuration not stated) [MLS000033292] | > 95
27 | CCOC(=O)Nc1ccc2c(c1)N(C(=O)CCN(C)C)c1ccccc1S2 [MLS000038082] | 48.7
28 | CCCCOc1ncnc2c1[nH]c1ccccc12 [MLS000041483] | 4.52
29 | COc1ccc(CCNc2ncnc3c2oc2ccccc23)cc1OC [MLS000041708] | 0.601
30 | CCCC(=O)Nc1ccc2oc(-c3ccc(OC)c(Br)c3)nc2c1 [MLS000042482] | 4.14
31 | CCOc1ccccc1OCCCCCc1c(C)n[nH]c1C [MLS000043342] | 1.27
32 | Cc1cc(C(=O)Nc2sc(C)c(-c3ccc(F)cc3)c2C(N)=O)no1 [MLS000043467] | 5.47
33 | O=C(Nc1ccc(-c2noc(CCc3ccccc3)n2)cc1)c1cccnc1 [MLS000047253] | 3.4
34 | COc1ccc(-n2nc3ccc(NS(C)(=O)=O)cc3n2)cc1Cl [MLS000049114] | 0.126
35 | N#C/C(=C/c1ccc(N2CCCCCC2)o1)c1ccc(F)cc1 [MLS000051438] | > 10
36 | O=S(=O)(Nc1ccc2c(c1)OCCO2)c1ccc2oc3ccccc3c2c1 [MLS000051884] | 7.43
37 | CCN=c1scc(-c2ccc3c(c2)NC(=O)CO3)n1N=C1CCCC1 [MLS000054638] | 7.16
38 | CCOC(=O)c1c(C)[nH]c(C(=O)C(C)OC(=O)c2cccc(OCc3c(C)noc3C)c2)c1C (configuration not stated) [MLS000054923] | 4.58
39 | COc1cc(C(=O)N2CCN(S(=O)(=O)c3ccc(C)cc3)CC2)ccc1OCc1c(C)noc1C [MLS000056221] | > 95
40 | CC(=O)Nc1ccccc1OCC(=O)c1cc(C)n(Cc2cccs2)c1C [MLS000056239] | 0.223
41 | c1ccc2c(c1)oc1c(NCc3ccc4c(c3)OCO4)ncnc12 [MLS000057790] | 6.46

Same assay, conditions: inactive by the depositor's call

Row | Structure (SMILES) | EC50 [µM]
42 | Cc1cc(C(=O)N2CCN(C(c3ccccc3)c3ccccc3)CC2)no1 [(4-benzhydrylpiperazin-1-yl)-(5-methyl-1,2-oxazol-3-yl)methanone] | 19.1
43 | CCCn1c(CNc2ccc(Br)cc2)nc2ccccc21 [(4-bromophenyl)-[(1-propylbenzimidazol-2-yl)methyl]amine] | 12.8
44 | CCN(CC)C(=O)Oc1ccc2c(=O)c(-c3ccccc3)coc2c1 [(4-oxidanylidene-3-phenyl-chromen-7-yl) N,N-diethylcarbamate] | 27.2
45 | CS(=O)(=O)n1nc(OC(=O)c2cccc3ccccc23)cc1N [(5-amino-1-methylsulfonylpyrazol-3-yl) naphthalene-1-carboxylate] | 11.9
46 | Cc1ccc(C(=O)c2cncc(Br)c2)cc1 [(5-bromanylpyridin-3-yl)-(4-methylphenyl)methanone] | 12.6
47 | O=C(c1cc(-c2ccccc2)on1)N1CCN(Cc2ccc3c(c2)OCO3)CC1 [(5-phenylisoxazol-3-yl)-(4-piperonylpiperazino)methanone] | 58.7
48 | Brc1ccc2ncnc(Nc3ccc(N4CCOCC4)cc3)c2c1 [(6-bromoquinazolin-4-yl)-(4-morpholinophenyl)amine] | 15.1
49 | Cn1cccc1C(=O)OCc1cc(Cl)cc2c1OCOC2 [(6-chloranyl-4H-1,3-benzodioxin-8-yl)methyl 1-methylpyrrole-2-carboxylate] | 17.2
50 | CCc1ccc2c(COC(=O)c3n[nH]c4ccccc34)cc(=O)oc2c1 [(7-ethyl-2-oxochromen-4-yl)methyl 1H-indazole-3-carboxylate] | 10.4
51 | CC1=C(/C=C/C(C)=C/C=C/C(C)=C/C(=O)O)C(C)(C)CCC1 [ALL-TRANS-RETINOIC ACID] | 34.1
52 | CC1Cc2cc(-c3csc(NC(=O)Cc4cccs4)n3)ccc2N1S(C)(=O)=O (configuration not stated) [MLS000027766] | 10.4
53 | CC(C)(C)NC(=O)CSc1ncnc2c1nnn2Cc1ccccc1Cl [MLS000034488] | 12.7
54 | Cc1ccccc1OCC(=O)Nc1ccc(N2CCN(C(=O)C(C)C)CC2)c(Cl)c1 [MLS000034491] | 15.2
55 | CC(=O)c1sc(NC(=O)C2(F)C(F)(F)C(F)(F)C(F)(F)C(F)(F)C2(F)F)nc1C [MLS000040071] | 31.1
56 | CC(C)[C@H](NC(=O)OC(C)(C)C)c1nnc(SCC(=O)Nc2ccc(Br)cc2)o1 [MLS000040800] | 16.2
57 | Cc1ccc2[nH]c3c(NCc4ccco4)ncnc3c2c1 [MLS000040855] | 10.8
58 | CC(C)OCCCNc1ncnc2c1[nH]c1ccccc12 [MLS000041327] | 13.2
59 | COc1cccc(-c2nc(-c3ccc(NC(=O)c4cccnc4)cc3)no2)c1 [MLS000047254] | 22.1
60 | CC(=O)Nc1ccc(S(=O)(=O)N2CCN(CCCOc3cc(C)ccc3C)CC2)cc1 [MLS000050317] | 17.5
61 | CN(Cc1cccs1)c1ncnc2sccc12 [MLS000056228] | 14.2
62 | CCCn1c(NC(=O)c2cccc(S(=O)(=O)N3CCCC3)c2)nc2ccccc21 [MLS000057540] | 10.3
